Results published in patent US9469650B2, “Melampomagnolide B derivatives” (BOARD OF TRUSTEES OF THE UNIVERSITY OF ARKANSAS, priority 2013, dated 2016).
Read-outs that look alike come from different tables or passages of the source.

How the values were obtained:
NCI-H322M = experiment: panel of 60 human tumor cell lines, growth inhibition (Non-Small Cell Lung Cancer)
SK-MEL-2 = experiment: panel of 60 human tumor cell lines, growth inhibition (Melanoma); conditions: SK-MEL-2
DU-145 = experiment: panel of 60 human tumor cell lines, growth inhibition (Prostate Cancer); conditions: DU-145
RXF 393 = experiment: panel of 60 human tumor cell lines, growth inhibition (Renal Cancer); conditions: RXF 393
BT-549 = experiment: panel of 60 human tumor cell lines, growth inhibition (Breast Cancer); conditions: BT-549
M14 = experiment: panel of 60 human tumor cell lines, growth inhibition (Melanoma); conditions: M14
UO-31 [1] = test system: UO-31
HCT-15 = experiment: panel of 60 human tumor cell lines, growth inhibition (Colon Cancer); conditions: HCT-15
HCT-116 = experiment: as above; conditions: HCT-116
NCI-H226 = experiment: panel of 60 human tumor cell lines, growth inhibition (Non-Small Cell Lung Cancer); conditions: NCI-H226
UACC-62 = experiment: panel of 60 human tumor cell lines, growth inhibition (Melanoma); conditions: UACC-62
786-0 = experiment: panel of 60 human tumor cell lines, growth inhibition (Renal Cancer); conditions: 786-0
K-562 = experiment: panel of 60 human tumor cell lines, growth inhibition (Leukemia); conditions: K-562
MCF7 = experiment: panel of 60 human tumor cell lines, growth inhibition (Breast Cancer); conditions: MCF7
SNB-75 = experiment: panel of 60 human tumor cell lines, growth inhibition (CNS Cancer); conditions: SNB-75
UO-31 [2] = experiment: panel of 60 human tumor cell lines, growth inhibition (Renal Cancer); conditions: UO-31
SK-OV-3 = experiment: panel of 60 human tumor cell lines, growth inhibition (Ovarian Cancer); conditions: SK-OV-3
OVCAR-3 = experiment: as above; conditions: OVCAR-3

Compound: C=C1C(=O)O[C@H]2[C@H]1CC/C(COC(=O)NC)=C\CC[C@@]1(C)O[C@@H]21 [JVM 2-57]
- Percent Growth (NCI-H322M; Log10 Concentration −4.0): −17%
- Percent Growth (NCI-H322M; Log10 Concentration −5.0): 78%
- Percent Growth (NCI-H322M; Log10 Concentration −6.0): 97%
- Percent Growth (NCI-H322M; Log10 Concentration −7.0): 94%
- Percent Growth (NCI-H322M; Log10 Concentration −8.0): 98%
- GI50 (NCI-H322M; NCI five dose): 19.7 µM
- TGI (NCI-H322M; NCI five dose): 6.62E−5
- Percent Growth (HL-60(TB); Log10 Concentration −4.0): −55%
- Percent Growth (HL-60(TB); Log10 Concentration −5.0): −11%
- Percent Growth (HL-60(TB); Log10 Concentration −6.0): 84%
- Percent Growth (HL-60(TB); Log10 Concentration −7.0): 91%
- Percent Growth (HL-60(TB); Log10 Concentration −8.0): 96%
- GI50 (HL-60(TB); NCI five dose): 2280 nM
- TGI (HL-60(TB); NCI five dose): 7.73E−6
- CC50 (HL-60(TB); read-out: LC50, NCI five dose): 77.2 µM
- Percent Growth (SK-MEL-2; Log10 Concentration −4.0): −70%
- Percent Growth (SK-MEL-2; Log10 Concentration −5.0): 53%
- Percent Growth (SK-MEL-2; Log10 Concentration −6.0): 99%
- Percent Growth (SK-MEL-2; Log10 Concentration −7.0): 99%
- Percent Growth (SK-MEL-2; Log10 Concentration −8.0): 96%
- GI50 (SK-MEL-2; NCI five dose): 10.5 µM
- TGI (SK-MEL-2; NCI five dose): 2.69E−5
- Percent Growth (DU-145; Log10 Concentration −4.0): −97%
- Percent Growth (DU-145; Log10 Concentration −5.0): 19%
- Percent Growth (DU-145; Log10 Concentration −6.0): 93%
- Percent Growth (DU-145; Log10 Concentration −7.0): 103%
- Percent Growth (DU-145; Log10 Concentration −8.0): 104%
- GI50 (DU-145; NCI five dose): 3.78 µM
- TGI (DU-145; NCI five dose): 1.45E−5
- Percent Growth (RXF 393; Log10 Concentration −4.0): −76%
- Percent Growth (RXF 393; Log10 Concentration −5.0): −2%
- Percent Growth (RXF 393; Log10 Concentration −6.0): 75%
- Percent Growth (RXF 393; Log10 Concentration −7.0): 107%
- Percent Growth (RXF 393; Log10 Concentration −8.0): 99%
- GI50 (RXF 393; NCI five dose): 2120 nM
- TGI (RXF 393; NCI five dose): 9.35E−6
- Percent Growth (BT-549; Log10 Concentration −4.0): −96%
- Percent Growth (BT-549; Log10 Concentration −6.0): 74%
- Percent Growth (BT-549; Log10 Concentration −7.0): 86%
- Percent Growth (BT-549; Log10 Concentration −8.0): 105%
- GI50 (BT-549; NCI five dose): 2130 nM
- TGI (BT-549; NCI five dose): 9.96E−6
- Percent Growth (M14; Log10 Concentration −4.0): −66%
- Percent Growth (M14; Log10 Concentration −5.0): 27%
- Percent Growth (M14; Log10 Concentration −6.0): 87%
- Percent Growth (M14; Log10 Concentration −7.0): 89%
- Percent Growth (M14; Log10 Concentration −8.0): 99%
- GI50 (M14; NCI five dose): 4.1 µM
- TGI (M14; NCI five dose): 1.93E−5
- CC50 (UO-31 [1]): 36.9 µM
- Percent Growth (HCT-15; Log10 Concentration −4.0): −83%
- Percent Growth (HCT-15; Log10 Concentration −5.0): 4%
- Percent Growth (HCT-15; Log10 Concentration −6.0): 82%
- Percent Growth (HCT-15; Log10 Concentration −7.0): 97%
- Percent Growth (HCT-15; Log10 Concentration −8.0): 98%
- GI50 (HCT-15; NCI five dose): 2580 nM
- TGI (HCT-15; NCI five dose): 1.12E−5
- Percent Growth (HCT-116; Log10 Concentration −4.0): −98%
- Percent Growth (HCT-116; Log10 Concentration −5.0): 3%
- Percent Growth (HCT-116; Log10 Concentration −6.0): 88%
- Percent Growth (HCT-116; Log10 Concentration −7.0): 93%
- Percent Growth (HCT-116; Log10 Concentration −8.0): 102%
- GI50 (HCT-116; NCI five dose): 2800 nM
- TGI (HCT-116; NCI five dose): 1.07E−5
- Percent Growth (NCI-H226; Log10 Concentration −4.0): −52%
- Percent Growth (NCI-H226; Log10 Concentration −5.0): 49%
- Percent Growth (NCI-H226; Log10 Concentration −6.0): 86%
- Percent Growth (NCI-H226; Log10 Concentration −7.0): 101%
- Percent Growth (NCI-H226; Log10 Concentration −8.0): 92%
- GI50 (NCI-H226; NCI five dose): 9.29 µM
- TGI (NCI-H226; NCI five dose): 3.06E−5
- CC50 (NCI/ADR-RES): > 100 µM
- Percent Growth (UACC-62; Log10 Concentration −4.0): −86%
- Percent Growth (UACC-62; Log10 Concentration −5.0): 35%
- Percent Growth (UACC-62; Log10 Concentration −6.0): 86%
- Percent Growth (UACC-62; Log10 Concentration −7.0): 99%
- Percent Growth (UACC-62; Log10 Concentration −8.0): 100%
- GI50 (UACC-62; NCI five dose): 5.11 µM
- TGI (UACC-62; NCI five dose): 1.95E−5
- Percent Growth (786-0; Log10 Concentration −4.0): −88%
- Percent Growth (786-0; Log10 Concentration −5.0): 38%
- Percent Growth (786-0; Log10 Concentration −6.0): 93%
- Percent Growth (786-0; Log10 Concentration −7.0): 90%
- Percent Growth (786-0; Log10 Concentration −8.0): 96%
- GI50 (786-0; NCI five dose): 5.94 µM
- TGI (786-0; NCI five dose): 1.99E−5
- Percent Growth (K-562; Log10 Concentration −4.0): −16%
- Percent Growth (K-562; Log10 Concentration −5.0): 16%
- Percent Growth (K-562; Log10 Concentration −6.0): 92%
- Percent Growth (K-562; Log10 Concentration −7.0): 92%
- Percent Growth (K-562; Log10 Concentration −8.0): 99%
- GI50 (K-562; NCI five dose): 3.58 µM
- TGI (K-562; NCI five dose): 3.20E−5
- Percent Growth (MCF7; Log10 Concentration −4.0): −75%
- Percent Growth (MCF7; Log10 Concentration −5.0): 4%
- Percent Growth (MCF7; Log10 Concentration −6.0): 83%
- Percent Growth (MCF7; Log10 Concentration −7.0): 88%
- Percent Growth (MCF7; Log10 Concentration −8.0): 94%
- GI50 (MCF7; NCI five dose): 2610 nM
- TGI (MCF7; NCI five dose): 1.11E−5
- Percent Growth (SNB-75; Log10 Concentration −4.0): −41%
- Percent Growth (SNB-75; Log10 Concentration −5.0): 55%
- Percent Growth (SNB-75; Log10 Concentration −6.0): 78%
- Percent Growth (SNB-75; Log10 Concentration −7.0): 76%
- Percent Growth (SNB-75; Log10 Concentration −8.0): 83%
- GI50 (SNB-75; NCI five dose): 11.2 µM
- TGI (SNB-75; NCI five dose): 3.72E−5
- Percent Growth (UO-31 [2]; Log10 Concentration −4.0): −93%
- Percent Growth (UO-31 [2]; Log10 Concentration −5.0): 7%
- Percent Growth (UO-31 [2]; Log10 Concentration −6.0): 82%
- Percent Growth (UO-31 [2]; Log10 Concentration −7.0): 88%
- Percent Growth (UO-31 [2]; Log10 Concentration −8.0): 84%
- GI50 (UO-31 [2]; NCI five dose): 2630 nM
- TGI (UO-31 [2]; NCI five dose): 1.16E−5
- Percent Growth (SK-OV-3; Log10 Concentration −4.0): −26%
- Percent Growth (SK-OV-3; Log10 Concentration −5.0): 91%
- Percent Growth (SK-OV-3; Log10 Concentration −6.0): 105%
- Percent Growth (SK-OV-3; Log10 Concentration −7.0): 90%
- Percent Growth (SK-OV-3; Log10 Concentration −8.0): 101%
- GI50 (SK-OV-3; NCI five dose): 22.4 µM
- TGI (SK-OV-3; NCI five dose): 5.96E−5
- Percent Growth (OVCAR-3; Log10 Concentration −4.0): −100%
- Percent Growth (OVCAR-3; Log10 Concentration −5.0): 7%
- Percent Growth (OVCAR-3; Log10 Concentration −6.0): 86%
- Percent Growth (OVCAR-3; Log10 Concentration −7.0): 100%
- Percent Growth (OVCAR-3; Log10 Concentration −8.0): 99%
- GI50 (OVCAR-3; NCI five dose): 2870 nM
- TGI (OVCAR-3; NCI five dose): 1.17E−5
